Values of other authors as cited in patent publication US11337989B2, “Compositions and methods for inhibiting inflammation and diseases using an alginic acid-based antimicrobial compound” (Evofem, Inc., priority 2013, dated 2022).
Blank lines part the entries; values can stand above or below the molecule they belong to.

How the values were obtained:
[1] = system: bacteria associated with bacterial vaginosis; settings: in vaginal fluid; O'Hanlon et al. 2011
[2] = system: vaginal and cervical cells
[3] = at an acidic pH
HIV = settings: compared with D or racemic lactic acid; Purcell et al. 2012

Molecule: CC(O)C(=O)O (stereo not shown) [lactic acid]
suppression of bacteria associated with bacterial vaginosis [1]: suppressed

Molecule: nonoxynol-9 [N-9]
toxicity to vaginal and cervical cells [2]: toxic

water solubility [3]: not water soluble
Molecule: C[C@H](Cn1cnc2c(N)ncnc21)OCP(=O)(O)O [Tenofovir, 1-(6-aminopurin-9-yl)propan-2-yloxymethylphosphonic acid]

Molecule: C[C@H](O)C(=O)O [L form of lactic acid, L-(+)-lactic acid]
potency in inactivating HIV (HIV): more potent
